According to US20100063026A1, “ANTIBACTERIAL QUINOLINE DERIVATIVES” (priority 2007, published 2010):
Converted amounts (≈) assume the structure as drawn.

Key:
[1] = tested on: Staphylococcus aureus (ATCC29213); experiment: Microtitre plate IC90 determination against non-mycobacterial strains: S. aureus; type: cell-based; conditions: 90% inhibitory concentration for bacterial growth, 37° C., resazurin fluorescence; for IC90 STA 1 B29213: 24 hours
Description: (§1) The bacteria used in this study were grown overnight in flasks containing 100 ml Mueller-Hinton Broth (Becton Dickinson-cat. no. 275730) in sterile de-ionized water, with shaking, at 37° C. Stocks (0.5 ml/tube) were stored at -70° C. until use. Bacteria titrations were performed in microtiter plates to detect the TCID50, in which the TCID50 represents the dilution that gives rise to bacterial growth in 50% of inoculated cultures. In general, an inoculum level of approximately 100 TCID50 was used for susceptibility testing. […] Therefore resazurin (0.6 mg/ml) was added in a volume of 20 μl to all wells 3 hours after inoculation, and the plates were re-incubated overnight. A change in colour from blue to pink indicated the growth of bacteria.

[2] = tested on: Streptococcus pneumoniae (ATCC6305); experiment: Microtitre plate IC90 determination against non-mycobacterial strains: S. pneumoniae; type: cell-based; conditions: 90% inhibitory concentration for bacterial growth, 37° C., resazurin fluorescence; for IC90 SPN 1 6305: 24 hours
Description: as §1

[3] = tested on: Mycobacterium tuberculosis (strain H37RV); experiment: In-vitro method for testing compounds against M. tuberculosis; type: cell-based; conditions: 90% inhibitory concentration for bacterial growth, 7 days, 37° C., Resazurin fluorescence; for IC90: Mycobacterium tuberculosis, H37RV, 168 h, read-out: IC90 MTB 1 H37RV
M. smegmatis ATCC607 = experiment: In-vitro anti-bacterial activity against strain M. smegmatis ATCC607; conditions: for IC90 MSM 1 ATCC607: 90% inhibitory concentration for bacterial growth, 48 hours, 37° C., Alamar Blue fluorescence
Description: Flat-bottom, sterile 96-well plastic microtiter plates were filled with 180 μl of sterile deionized water, supplemented with 0.25% BSA. Subsequently, stock solutions (7.8× final test concentration) of compounds were added in 45 μl volumes to a series of duplicate wells in column 2 so as to allow evaluation of their effects on bacterial growth. Serial five-fold dilutions (45 μl in 180 μl) were made directly in the microtiter plates from column 2 to 11 using a customised robot system (Zymark Corp., Hopkinton, Mass.). Pipette tips were changed after every 3 dilutions to minimize pipetting errors with high hydrophobic compounds. Untreated control samples with (column 1) and without (column 12) inoculum were included in each microtiter plate. Approximately 250 CFU per well of bacteria inoculum, in a volume of 100 μl in 2.8× Mueller-Hinton broth medium, was added to the rows A to H, except column 12. The same volume of broth medium without inoculum was added to column 12 in row A to H. The cultures were incubated at 37° C. for 48 hours in a humidified 5% CO2 atmosphere (incubator with open air valve and continuous ventilation). At the end of incubation, two days after inoculation, the bacterial growth was quantitated fluorometrically. Therefore Alamar Blue (10×) was added to all wells in a volume of 20 μl and plates were incubated for another 2 hours at 50° C.
The fluorescence was read in a computer-controlled fluorometer (Cytofluor, Biosearch) at an excitation wavelength of 530 nm and an emission wavelength of 590 nm (gain 30). The percentage growth inhibition achieved by the compounds was calculated according to standard methods and expressed as IC90 (μg/ml) which defines the 90% inhibitory concentration for bacterial growth.

Compound | IC90 STA 1 B29213 [1] | IC90 SPN 1 6305 [2] | IC90 [3] | IC90 MSM 1 ATCC607 (M. smegmatis ATCC607) | IC90 MTB 1 H37RV [3] | IC90 ([1]; Staphylococcus aureus, ATCC29213, 24 h, read-out: IC90 STA 1 B29213) | IC90 ([2]; Streptococcus pneumoniae, ATCC6305, 24 h, read-out: IC90 SPN 1 6305) | IC90 (M. smegmatis ATCC607; Mycolicibacterium smegmatis, ATCC607, 48 h, read-out: IC90 MSM 1 ATCC607, 90% inhibitory concentration for bacterial growth, 37° C., Alamar Blue fluorescence)
COc1nc2ccc(Br)cc2cc1C(c1ccccc1)C(O)(CCCCN1CC2CC1CN2Cc1ccccc1)c1ccc2ccccc2c1 (stereo not drawn) [Compound 23] | 2.3 µg/mL (≈ 3.16 µM) | 0.2 µg/mL (≈ 0.275 µM) | 57.7 µg/mL (≈ 79.4 µM) | 0.5 µg/mL (≈ 0.688 µM) | – | – | – | –
COc1nc2ccc(Br)cc2cc1C(c1ccccc1)C(O)(CCCCN(C)C(=N)N)c1ccccc1 (single isomer, unassigned) [Compound 2] | 1.8 µg/mL (≈ 3.21 µM) | 2.2 µg/mL (≈ 3.92 µM) | – | 1.8 µg/mL (≈ 3.21 µM) | 2.5 µg/mL (≈ 4.45 µM) | – | – | –
COc1nc2ccc(Br)cc2cc1C(c1ccccc1)C(O)(CCCCN(C)C(=N)N)c1ccccc1 (single isomer, unassigned) [Compound 1] | – | – | 4 µg/mL (≈ 7.12 µM) | – | – | 2 µg/mL (≈ 3.56 µM) | 2.2 µg/mL (≈ 3.92 µM) | 1.8 µg/mL (≈ 3.21 µM)
